The record followed here is patent EP3478687B1 (Daewoong Pharmaceutical Co., Ltd., priority 2016, dated 2018).

In experiment [1] the target is T1, Recombinant purified human BTK (Homo sapiens, UniProt Q06187).
T1 construct: purchased Promega V9071
Kind of experiment: BTK kinase inhibitory activity, ADP-Glo kinase assay (Promega V9071). The format is biochemical. Conditions: ATP 10 uM, 8 ng BTK per reaction, 1 hour 30 °C, chemiluminescence. In a few lines: (§1)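 IC50 values come from ADP-Glo luminescence after 1 h kinase reactions at 30 °C in 1% DMSO on 0.2 µg/µL Poly(Glu4,Tyr1) substrate. ATP was 10 µM for BTK (8 ng, buffer containing MnCl2) and 5 µM for JAK3 (4 ng), in Tris-Cl pH 7.5/MgCl2/BSA/DTT.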

Experiment [2] addresses T2, Recombinant purified human JAK3 (Homo sapiens, UniProt P52333).
T2 construct: purchased Promega V9441
T2 sequence (P52333 1-1124): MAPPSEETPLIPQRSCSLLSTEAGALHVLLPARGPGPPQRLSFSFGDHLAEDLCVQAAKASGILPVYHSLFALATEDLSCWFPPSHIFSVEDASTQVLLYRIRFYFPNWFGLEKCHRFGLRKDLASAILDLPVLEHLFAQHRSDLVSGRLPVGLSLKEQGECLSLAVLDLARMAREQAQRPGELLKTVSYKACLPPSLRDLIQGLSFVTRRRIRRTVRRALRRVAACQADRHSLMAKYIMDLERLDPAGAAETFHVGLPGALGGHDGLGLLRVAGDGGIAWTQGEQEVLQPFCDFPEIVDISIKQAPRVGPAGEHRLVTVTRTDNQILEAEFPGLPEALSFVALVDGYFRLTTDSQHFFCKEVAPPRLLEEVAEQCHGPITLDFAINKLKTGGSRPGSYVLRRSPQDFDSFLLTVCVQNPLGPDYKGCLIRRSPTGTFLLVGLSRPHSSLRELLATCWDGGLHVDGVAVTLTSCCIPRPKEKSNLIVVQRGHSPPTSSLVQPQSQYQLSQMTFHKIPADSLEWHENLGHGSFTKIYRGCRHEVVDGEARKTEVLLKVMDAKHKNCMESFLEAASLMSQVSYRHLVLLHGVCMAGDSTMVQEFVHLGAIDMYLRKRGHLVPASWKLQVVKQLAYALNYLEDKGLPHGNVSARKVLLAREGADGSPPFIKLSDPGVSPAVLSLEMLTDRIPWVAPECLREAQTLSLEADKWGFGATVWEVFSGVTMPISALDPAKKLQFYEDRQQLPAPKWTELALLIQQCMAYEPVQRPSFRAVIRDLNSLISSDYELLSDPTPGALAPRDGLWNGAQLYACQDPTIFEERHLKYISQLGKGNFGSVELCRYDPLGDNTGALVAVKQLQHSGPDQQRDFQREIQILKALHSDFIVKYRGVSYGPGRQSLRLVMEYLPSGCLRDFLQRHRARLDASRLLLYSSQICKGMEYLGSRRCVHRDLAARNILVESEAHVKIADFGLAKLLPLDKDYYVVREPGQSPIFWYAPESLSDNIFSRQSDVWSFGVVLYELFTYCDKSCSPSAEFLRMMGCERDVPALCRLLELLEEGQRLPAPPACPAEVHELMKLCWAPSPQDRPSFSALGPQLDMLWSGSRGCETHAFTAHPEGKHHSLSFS
Kind of experiment: JAK3 kinase inhibitory activity, ADP-Glo kinase assay (Promega V9441). The format is biochemical. The settings on record: ATP 5 uM, 4 ng JAK3 per reaction, 1 hour 30 °C, chemiluminescence. In a few lines: as §1

T1 sequence (Q06187 whole entry): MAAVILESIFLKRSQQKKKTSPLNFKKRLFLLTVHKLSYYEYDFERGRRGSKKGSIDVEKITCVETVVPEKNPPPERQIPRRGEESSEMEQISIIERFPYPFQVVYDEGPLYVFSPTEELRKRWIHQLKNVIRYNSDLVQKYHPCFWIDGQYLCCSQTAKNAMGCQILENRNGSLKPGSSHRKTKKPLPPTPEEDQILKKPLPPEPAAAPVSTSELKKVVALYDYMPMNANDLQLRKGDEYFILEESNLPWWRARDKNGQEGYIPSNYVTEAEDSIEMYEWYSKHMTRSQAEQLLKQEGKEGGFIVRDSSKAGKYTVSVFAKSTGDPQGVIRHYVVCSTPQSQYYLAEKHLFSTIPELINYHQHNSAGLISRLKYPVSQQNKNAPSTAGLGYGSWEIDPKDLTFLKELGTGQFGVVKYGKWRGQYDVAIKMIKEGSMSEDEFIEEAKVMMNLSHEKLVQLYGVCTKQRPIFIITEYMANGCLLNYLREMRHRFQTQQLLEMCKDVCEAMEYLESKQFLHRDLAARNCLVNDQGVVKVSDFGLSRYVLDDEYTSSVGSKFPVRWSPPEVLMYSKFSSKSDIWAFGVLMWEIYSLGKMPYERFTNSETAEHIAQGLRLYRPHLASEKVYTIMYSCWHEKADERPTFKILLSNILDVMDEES

In the case of `CCn1cc(Nc2nc(N[C@@H]3CCCN(C(=O)/C(C#N)=C/C4CC4)C3)c3cc[nH]c3n2)cn1` [Example 171, (R,E)-3-cyclopropyl-2-(3-((2-((1-ethyl-1H-pyrazol-4-yl)amino)-7H-pyrrolo[2,3-d]pyrimidin-4-yl)amino)piperidine-1-carbonyl)acrylonitrile], the concentration for half-maximal inhibition (IC50) was found to be 2.2 nM in experiment [1] and 0.9 nM in experiment [2].

Consider `CCn1cc(Nc2nc(N[C@@H]3CCCN(C(=O)/C(C#N)=C/C(C)C)C3)c3cc[nH]c3n2)cn1` [Example 172, (R,E)-2-(3-((2-((1-ethyl-1H-pyrazol-4-yl)amino)-7H-pyrrolo[2,3-d]pyrimidin-4-yl)amino)piperidine-1-carbonyl)-4-methylpent-2-enenitrile], for which the IC50 in experiment [1] turned out to be 1.6 nM; in experiment [2], 0.9 nM.

On to `CCn1cc(Nc2nc(S[C@@H]3CCCN(C(=O)/C(C#N)=C/C4CC4)C3)c3cc[nH]c3n2)cn1` [Example 173, (R,E)-3-cyclopropyl-2-(3-((2-((1-ethyl-1H-pyrazol-4-yl)amino)-7H-pyrrolo[2,3-d]pyrimidin-4-yl)thio)piperidine-1-carbonyl)acrylonitrile], for which the IC50 came out at 6 nM in experiment [1] and 1 nM in experiment [2].

Regarding `CCn1cc(Nc2nc(S[C@@H]3CCCN(C(=O)/C(C#N)=C/C(C)C)C3)c3cc[nH]c3n2)cn1` [Example 174, (R,E)-2-(3-((2-((1-ethyl-1H-pyrazol-4-yl)amino)-7H-pyrrolo[2,3-d]pyrimidin-4-yl)thio)piperidine-1-carbonyl)-4-methylpent-2-enenitrile], the IC50 in experiment [1] was 2 nM; in experiment [2], 0.7 nM.

For the compound `CCn1cc(Nc2nc(N[C@@H]3CCCN(C(=O)/C(C#N)=C/C4CC4)C3)c3cn[nH]c3n2)cn1` [Example 175, (R,E)-3-cyclopropyl-2-(3-((6-((1-ethyl-1H-pyrazol-4-yl)amino)-1H-pyrazolo[3,4-d]pyrimidin-4-yl)amino)piperidine-1-carbonyl)acrylonitrile], the IC50 in experiment [1] was 1.4 nM; in experiment [2] it was 14.9 nM.

Take `CCn1cc(Nc2nc(S[C@@H]3CCCN(C(=O)/C(C#N)=C/C4CC4)C3)c3cn[nH]c3n2)cn1` [Example 176, (R,E)-3-cyclopropyl-2-(3-((6-((1-ethyl-1H-pyrazol-4-yl)amino)-1H-pyrazolo[3,4-d]pyrimidin-4-yl)thio)piperidine-1-carbonyl)acrylonitrile]: the figures for the concentration for half-maximal inhibition (IC50) in experiment [1] and in experiment [2] were 3 nM and 42.1 nM, respectively.

As for `CCn1cc(Nc2nc(N[C@@H]3CCCN(C(=O)/C(C#N)=C/C4CC4)C3)c3c(Cl)c[nH]c3n2)cn1` [Example 177, (R,E)-2-(3-((5-chloro-2-((1-ethyl-1H-pyrazol-4-yl)amino)-7H-pyrrolo[2,3-d]pyrimidin-4-yl)amino)piperidine-1-carbonyl)-3-cyclopropylacrylonitrile], the IC50 in experiment [1] is 1.2 nM; in experiment [2], 0.4 nM.

Consider `CCn1cc(Nc2nc(N[C@@H]3CCCN(C(=O)/C(C#N)=C/C(C)C)C3)c3c(Cl)c[nH]c3n2)cn1` [Example 178, (R,E)-2-(3-((5-chloro-2-((1-ethyl-1H-pyrazol-4-yl)amino)-7H-pyrrolo[2,3-d]pyrimidin-4-yl)amino)piperidine-1-carbonyl)-4-methylpent-2-enenitrile], for which the IC50 stood at 0.9 nM in experiment [1] and 0.5 nM in experiment [2].

On to `CCn1cc(Nc2nc(S[C@@H]3CCCN(C(=O)/C(C#N)=C/C4CC4)C3)c3c(Cl)c[nH]c3n2)cn1` [Example 179], for which the IC50 in experiment [1] was found to be 8.3 nM; in experiment [2] it was 1.1 nM.

With `CCn1cc(Nc2nc(S[C@@H]3CCCN(C(=O)/C(C#N)=C/C(C)C)C3)c3c(Cl)c[nH]c3n2)cn1` [Example 180, (R,E)-2-(3-((5-chloro-2-((1-ethyl-1H-pyrazol-4-yl)amino)-7H-pyrrolo[2,3-d]pyrimidin-4-yl)thio)piperidine-1-carbonyl)-4-methylpent-2-enenitrile], the IC50 in experiment [1] was found to be 3.1 nM; in experiment [2], 1.5 nM.

For `CCn1cc(Nc2nc(S[C@@H]3CCCN(C(=O)/C(C#N)=C/C4CC4)C3)c3c(Cl)n[nH]c3n2)cn1` [Example 181], the IC50 in experiment [1] was determined as 2.2 nM; in experiment [2], 30.2 nM.
